Experimental data as given in PMC7822874, “Chemoprotective antimalarials identified through quantitative high-throughput screening of Plasmodium blood and liver stage parasites” (Scientific Reports, 2021).
Like-named read-outs stand apart in the source and are kept apart here.

System: Plasmodium falciparum Dd2 asexual blood stage parasites
Assay: microbe, parasite or virus in culture
Parameters: species or system Plasmodium falciparum Dd2 in human erythrocytes; single determination (one 11-point concentration-response curve)
Details: Plasmodium falciparum, DD2, Erythrocyte, 72 h

SMILES	AC50	AC50 (read-out: AC50)
Cc1ccc(C(=O)Nc2cccc(NC(=O)c3ccc(C)c([N+](=O)[O-])c3)n2)cc1[N+](=O)[O-] [MLS001195117-01]	15 µM	–
COc1ccc(-c2cnc3[nH]cc(CC(=O)NCc4cccnc4)c3c2)cn1 [NCGC00412433-01]	–	6.85 µM
CCc1ccc(Oc2c(C(F)(F)F)oc3c(CN4CCN(C)CC4)c(O)ccc3c2=O)cc1 [NCGC00101488-01]	–	0.75 µM
CC(C(=O)c1c[nH]c2ccccc12)N1CCN(C(=O)c2ccco2)CC1 (centres unmarked) [MLS000768379-01]	5.96 µM	–
O=c1cc(-c2cccnc2)oc2c(-c3ccccc3Oc3ccccc3)nccc12 [NCGC00416761-01]	–	17.2 µM
COc1ccc(OC)c(S(=O)(=O)Nc2ccc(O)c3ccccc23)c1 [MLS001045548-01]	–	8.41 µM
Cc1cccc(N2CCN(c3cccc(C)c3)C2c2cccnc2)c1 [MLS000105583-01]	–	5.96 µM
CC(C)C(=O)NC(c1ccc([N+](=O)[O-])cc1)c1c(O)ccc2ccccc12 (centres unmarked) [MLS000571279-01]	–	13.3 µM
COc1ccc(-c2cc([C@H]3CN4CC[C@H]3C[C@@H]4CNC(=O)NC3CCCCC3)n(C)n2)cc1 [NCGC00399776-01]	–	1.88 µM
NC(Cc1ccccc1)C(=O)N1CCC2(CC1)CN(C(=O)c1ccc(Cl)cc1)CCO2 (centres unmarked) [NCGC00378158-01]	–	0.841 µM
O=C(NCCN1CCCC1)C1CN([S+](=O)([O-])c2cccs2)CC12CCCCC2 (centres unmarked) [NCGC00439935-01]	–	13.3 µM
COc1ccccc1C(=O)N1CCC2(CC1)OC(=O)N(Cc1ccccc1C#N)C2(C)c1ccccc1 (centres unmarked) [NCGC00415624-01]	–	15 µM
Cc1ccccc1NC(=O)Nc1ccc2nc(N3CCN(C)CC3)cc(C)c2c1 [NCGC00126513-01]	–	1.5 µM
FC(F)(F)CN1C2CCC1CN(c1nnc(Cl)c3ccccc13)C2 [NCGC00375660-01]	–	2.11 µM
O=C1CC2(CCN(CC3CCCCC3)CC2)Oc2cc(Cl)ccc21 [NCGC00476867-01]	–	1.5 µM
COc1ccccc1Cc1nc2ccccc2nc1SCC(=O)NCc1ccccc1Cl [NCGC00133705-01]	–	2.11 µM
CCC(Oc1ccccc1)C(=O)Nc1cc(C(F)(F)F)ccc1N1CCOCC1 (centres unmarked) [MLS001099270-01]	–	7.5 µM
COc1ccc(CC(=O)NCc2cc(C)cc3c(C)c(C)[nH]c23)c(OC)c1 [NCGC00431513-01]	–	8.41 µM
O=C(Nc1ccc(Cl)cc1)c1cc2c(-c3ccccc3)nn(-c3ccccc3)c2s1 [NCGC00102088-01]	–	2.37 µM
Oc1ccccc1-c1cc(C2=CCOCC2)c2cncn2c1 [NCGC00412161-01]	–	9.68 µM
Cc1ccc(CN2CC[C@@H]3C(=O)NCCCCCCN(Cc4ccncc4)[C@@H]3C2)o1 [NCGC00467213-01]	–	2.11 µM
Oc1ccccc1CN1CCOC[C@H]1c1nc(-c2ccc(C(F)(F)F)cc2)c[nH]1 [NCGC00394286-01]	–	4.85 µM
Cc1nc2cc(F)ccc2n1C1CCN(C(=O)c2c(F)cccc2F)CC1 [MLS000710077-01]	–	5.96 µM
CC1=C[C@@H](CN2CCC(C)CC2)[C@H](C(C)C)C[C@H]1Cc1nnc(-c2cccnc2)o1 [NCGC00421463-01]	–	15.3 µM

SMILES	AC50	AC50 (read-out: AC50)
COC(=O)c1cc(C(=O)c2ccc(Cl)cc2Cl)cn1C [MLS000546235-01]	–	13.3 µM
O[C@H]1CC[C@@H](Cc2cc(COc3ccccc3)on2)O[C@@H]1CNCc1cccc(Cl)c1 [NCGC00393311-01]	–	2.11 µM
COc1ccc(CN2CCC3(C2)C(NC2CCCCC2)=NC(=O)N3c2cccnc2)cc1 (centres unmarked) [NCGC00374261-01]	–	2.11 µM
COc1ccccc1CNC[C@H]1O[C@H](Cc2cc(CN(C)Cc3ccccc3)on2)CC[C@@H]1O [NCGC00393289-01]	–	2.99 µM
C[C@H]1[C@@H]2[C@@H](O)C([C@H](C)C(=O)NCc3cc(F)cc(F)c3)CC[C@@]2(C)CC[C@@H]1NC(=O)c1cncnc1 (some centres unmarked) [NCGC00395377-01]	–	4.22 µM
CCOC(=O)C1=C(C)NC(=O)CC1c1cc(OC)c(OC)cc1Br (centres unmarked) [MLS000723492-01]	–	5.31 µM
Cn1ccc(NCc2nnc(C(=O)N3CCC[C@@H]3C(c3ccccc3)c3ccccc3)n2-c2ccccc2)n1 [NCGC00415774-01]	–	1.33 µM
CCCN1CCC(NCc2cn(C)nc2-c2ccc(Oc3ccccc3)cc2)CC1 [MLS000732385-01]	–	4.73 µM
O=C(NC1=C(Nc2ccc(Cl)cc2)C(=O)c2ccccc2C1=O)c1ccccc1 [MLS000375030-01]	–	0.473 µM
O=C(NCCN1CCCCC1)c1ccc(-c2nnc3ccc(NC(=O)C4CCC4)cn23)cc1 [NCGC00429914-01]	–	13.3 µM
CC(C)=NOC(=O)c1c(C)noc1-c1snnc1C [MLS000834920-01]	–	6.68 µM
CCC(=O)N1CCc2cc(Br)cc(S(=O)(=O)C3(C(=O)OC)CC3)c21 [MLS000047144-01]	–	3.76 µM
COc1ccc(CCN(C)/C(S)=N/c2cccc(C)c2)cc1OC [MLS001177860-01]	–	2.11 µM
CC1(c2ccccc2)CC(c2ccccc2)=Nc2nonc2N1 (centres unmarked) [MLS000079110-01]	–	5.31 µM
COc1cccc(NC(=O)N[C@H]2C[C@@H](c3nc(C)no3)N(C)C2)c1 [NCGC00395440-01]	–	17.2 µM
Fc1cccc(CN2CCC(N3CC(OCC4CC4)C34CCCCC4)CC2)c1 (centres unmarked) [NCGC00463410-01]	–	4.22 µM
Cc1noc(C)c1-c1cc2cc(CN(C)C)oc2c(NCc2cccnc2)n1 [NCGC00417547-01]	–	1.22 µM
COc1ccc(-n2cc(CNC3CCN(C)CC3)c(-c3cccc(F)c3)n2)cc1 [MLS000732463-01]	–	10.6 µM
CC1(c2ccccn2)Nc2ccccc2-c2nc3ccccc3n21 (centres unmarked) [MLS000039430-01]	–	5.31 µM
CCO[C@H]1OC(C(=O)N2CCN(Cc3ccc4c(c3)OCO4)CC2)=C[C@@H](c2cn(C(C)=O)c3ccccc23)[C@@H]1CCCO [MLS000834466-01]	–	8.41 µM
COc1ccc2cc1Nc1ccc(cc1)C[C@H](NC(=O)c1cc3ccccc3n1C)C(=O)N(C)[C@H](C(=O)NCCC(C)C)C2 [NCGC00410275-01]	–	10.6 µM
CCOC(=O)c1[nH]c(Cc2[nH]c(C(=O)OCC)c(C)c2CCC(=O)OC)c(CCC(=O)OC)c1C [MLS000111116-01]	–	5.31 µM
CN(C)C[C@@H]1CN(C)C[C@H]1N[S+](=O)([O-])c1ccc(Br)cc1 [NCGC00462726-01]	–	13.3 µM
COc1ccc(-c2noc(-c3cccn3CC(=O)Nc3ccc(C)cc3C)n2)cc1F [NCGC00445492-01]	–	10.6 µM

SMILES	AC50	AC50 (read-out: AC50)
O=C1NC(=O)/C(=C\c2ccc(N3CCOCC3)o2)N1 [MLS000724369-01]	–	9.44 µM
Cc1oc2ccc(O)c(CN(C)Cc3ccccc3)c2c1C(=O)Nc1ccccc1 [NCGC00115689-01]	–	2.37 µM
O=C1N=C(NC2CCCC2)C2(CCN(Cc3ccc(F)cc3)C2)N1c1cc(F)cc(F)c1 (centres unmarked) [NCGC00374305-01]	–	10.6 µM
O=C(NCC1CCCN(Cc2cccc(-c3ccco3)c2)C1)c1cccs1 (centres unmarked) [NCGC00427501-01]	–	6.68 µM
Cc1noc(C)c1-c1cc2c(cc(C)n2CCN(C)C)c(Nc2ccn(C)n2)n1 [NCGC00417199-01]	–	13.7 µM
COc1cccc(NC(=O)Cn2cccc2-c2nc(-c3ccc(OC)c(F)c3)no2)c1 [NCGC00445448-01]	–	6.68 µM
CCC(CC)c1cc([C@H]2CN3CC[C@H]2C[C@@H]3CNC(=O)c2ccccc2)nc(-c2ccncc2)n1 [NCGC00400223-01]	–	10.6 µM
CCOc1ccc(-c2cn3c(n2)sc2cc(C(=O)NC(C)C45CC6CC(CC(C6)C4)C5)ccc23)cc1 (centres unmarked) [NCGC00113230-01]	–	5.96 µM
CN(C)Cc1cc(C[C@@H]2C[C@H](NCc3ccccc3O)C2(C)C)no1 [NCGC00395458-01]	–	17.2 µM
CC1=C[C@@H](CNC(C)C)[C@H](C(C)C)C[C@H]1Cc1nnc(-c2ccc(C)cc2)o1 [NCGC00394176-01]	–	13.7 µM
CC(C)c1ccccc1NC(=O)Cn1cccc1-c1nc(-c2ccc(F)cc2)no1 [NCGC00445438-01]	–	2.99 µM
O=C(c1cccc(O)c1)N1CC=C(c2cnc3cnc(-c4ccccc4)cn23)CC1 [NCGC00414040-01]	–	9.68 µM
CN1CCCC1CCNS(=O)(=O)c1ccc(Br)cc1 (centres unmarked) [MLS000549971-01]	–	5.96 µM
O=C(c1n[nH]c2ccccc12)N1CCCC1c1nc(CCOCC2CCOCC2)no1 (centres unmarked) [NCGC00460318-01]	–	9.44 µM
COc1ccc(CCNC(=O)CC(c2ccccc2OC)c2c[nH]c3ccccc23)cc1OC (centres unmarked) [NCGC00473331-01]	–	13.3 µM
COc1ccc(CCC(=O)N2Cc3ccccc3OC3(CCN(C)CC3)C2)cc1 [NCGC00456460-01]	–	7.5 µM
COc1cccc([S+](=O)([O-])N2CCC3(CC2)CC(N(C)Cc2ccccc2)CCO3)c1 (centres unmarked) [NCGC00453781-01]	–	8.41 µM
CCC1=C(C(=O)OC)C(c2cccc(F)c2)N2C(CC(=O)NCCc3cccs3)=CSC2=N1 (centres unmarked) [NCGC00473313-01]	–	9.44 µM
CCN1CCN(Cc2ccc(NC(=O)c3ccc(C)c(NC(=O)C4=NN(c5ccccc5)C(=O)C4)c3)cc2C(F)(F)F)CC1 [MLS003105987-01]	8.41 µM	–
Cc1occc1C(=O)N1CCN(C(c2ccccc2)c2ccccc2)CC1 [MLS000089076-01]	–	10.6 µM
O=c1nc(C2CCCN(Cc3ccccn3)C2)[nH]n1-c1ccc(Cl)cc1 (centres unmarked) [NCGC00477746-01]	–	2.37 µM
COc1cccc(NC(=O)c2sc3nc(C)c(C(=O)Nc4ccc(C)cc4C)c(-c4ccccc4Cl)c3c2N)c1 [NCGC00104946-01]	–	2.66 µM
COc1ccc(Nc2ccccc2NC(=O)c2ccccc2Br)cc1 [MLS001233685-01]	–	5.96 µM
